# Data from patent publication US20250051350A1, “Dihydroartemisinin derivatives and the treatment of fibrotic diseases” (GreenStone Biosciences, Inc., priority 2023, published 2025).
# Like-named read-outs stand apart in the source and are kept apart here.
# Legend:
# [1] = test system: bleomycin injury mouse skin model; assay: Bleomycin injury mouse skin model; type: in vivo; conditions: topical administration (50 μL, 100 μM in 0.1% DMSO/PBS)
# [2] = test system: Induced pluripotent stem cell-derived cardiac fibroblasts (ACTA2-GFP); assay: Antifibrotic effects in TGF-β-activated iPSC-derived cardiac fibroblasts (ACTA2-GFP fluorescence); type: cell-based; conditions: for antifibrotic efficacy in this model: TGF-β-activated iPSC-derived cardiac fibroblasts; for IC50 / reduction in fluorescence (fibrotic marker ACTA2-GFP): activated with TGF-β, 48 hours; for IC50: simultaneous treatment, ACTA2-GFP fluorescence, read-out: IC50, reduction in fluorescence; for reduction in fluorescence (fibrotic marker ACTA2-GFP): various concentrations
# Excerpt: Induced pluripotent stem cell-derived cardiac fibroblasts were constructed containing a fusion of the alpha-smooth muscle actin to the green fluorescent protein (ACTA2-GFP) construct. ACTA2 is a myofibroblast marker, such that the fibroblasts fluoresce with an intensity dependent on the extent of fibrosis.
# [3] = Intravenous and oral pharmacokinetics in mice; type: in vivo; conditions: male C57BL/6J mice
# Experimental: The intravenous (IV) and oral (PO) pharmacokinetics of the PT compounds were measured in 6-10 week-old male C57BL/6J mice, using three mice/group. The test compounds were formulated in an appropriate water-based vehicle to give a clear solution for IV administration, or a clear solution or uniform suspension for PO administration. Animals were dosed within 4 hours of the preparation of the formulations; with the dose volume being determined by the animal's body weight measured on the morning of the dosing day. Blood samples (about 25 μL per time point) were taken at 5 and 15 minutes and 1, 3, and 5 hours after dosing, into pre-chilled EDTA-K2 tubes and kept on wet ice until centrifugation. The tubes were centrifuged at 3200×g at about 4° C. for 10 minutes, and the plasma analyzed by LC-MS/MS.
# [4] = Solubility of PT-30; type: physicochemical
# Experimental: (§1) PT-30, DHA 5-oxo-2,6-diazaspiro[3.4]octane-2-carboxylate, (3R,5aS,6R,8aS,9R,12S,12aR)-decahydro-3,6,9-trimethyl-3,12-epoxy-12H-pyrano[4,3-j]-1,2-benzodioxepin-10-yl 5-oxo-2,6-diazaspiro[3.4]octane-2-carboxylate, was a white crystalline solid as prepared. […] PT-30 had low solubility (<0.1 mg/mL) in aqueous acidic conditions and in simulated gastric fluid, and a solubility of about 0.7 mg/mL in fasted-state and fed-state simulated intestinal fluids.
# [5] = test system: CCl4 injury mouse liver model; assay: CCl4 injury mouse liver model; type: in vivo; conditions: oral administration
# [6] = test system: MD2 signaling pathway (HEK Blue-TLR4 cells); assay: HEK Blue-TLR4 assay (MD2 pathway); type: cell-based; conditions: 1 h preincubation, 10 ng/mL lipopolysaccharide, read after 20 hours at 655 nm
# Experimental: HEK Blue-TLR4 cells were plated in detection media, preincubated with vehicle or PT-2, PT-14, or PT-30 dissolved in vehicle (with artesunate, DHA, and artemisinin comparators) for 1 h, then co-stimulated with 10 ng/mL lipopolysaccharide. Reporter activity was read after 20 hours at 655 nm in a spectrophotometer. The PT compounds were active in this assay, showing that they inhibit the MD2 signaling pathway.
# [7] = test system: primary pulmonary fibroblasts; assay: Antifibrotic efficacy in primary pulmonary fibroblasts; type: cell-based
# [8] = Solid-state stability of PT-30; type: physicochemical
# Experimental: as §1
# [9] = in vitro; type: in vitro ADME; conditions: for fraction unbound: plasma
# Experimental: Plasma protein binding assays were conducted in triplicate for compounds PT-2, PT-14, PT-28, and PT-30, with artesunate, DHA, and warfarin as comparators.
# [10] = Hygroscopicity of PT-30; type: physicochemical; conditions: from 40% to 95% RH
# Experimental: as §1
# [11] = test system: bleomycin-induced pulmonary fibrosis model; conditions: bleomycin-induced pulmonary fibrosis model in rats; cited from earlier work
recovery ([9]; human),fraction unbound ([9]; human),recovery ([9]; mouse),fraction unbound ([9]; mouse),SMILES,activity in HEK Blue-TLR4 reporter assay (inhibition of MD2 signaling pathway) [6],IC50 [2],"IV AUC0-last ([3]; IV, plasma)","IV Clearance ([3]; IV, plasma)","IV T1/2 ([3]; IV, plasma)","IV VD,ss ([3]; IV, plasma)",PO Bioavailability ([3]; PO),"PO AUC0-last ([3]; PO, plasma)","PO T1/2 ([3]; PO, plasma)",other results
84.9%,0.455,87.6%,0.079,"C[C@@H]1CC[C@H]2[C@@H](C)C(OC(=O)N3CC4(CCNC4=O)C3)O[C@H]3O[C@@]4(C)CC[C@@H]1[C@]32OO4 (stereo partly drawn) [PT-30, (3R,5aS,6R,8aS,9R,12S,12aR)-decahydro-3,6,9-trimethyl-3,12-epoxy-12H-pyrano[4,3-j]-1,2-benzodioxepin-10-yl 5-oxo-2,6-diazaspiro[3.4]octane-2-carboxylate]",active,,,,,,,,,"antifibrotic efficacy [1]: demonstrated antifibrotic efficacy; antifibrotic efficacy in this model [2]: demonstrated antifibrotic efficacy; bioavailability ([3]; mouse, plasma, PO): 73%; clearance ([3]; mouse, IV, plasma): 30 mL/min/kg; AUC(0-t) ([3]; mouse, IV, plasma, read-out: IV AUC0-last): 5300 ng·h/mL; half-life ([3]; mouse, IV, plasma, read-out: IV T1/2 (converted)): 13.2 min; Vd ([3]; mouse, IV, plasma, read-out: IV VD,ss): 0.6 L/kg; AUC(0-t) ([3]; mouse, PO, plasma, read-out: PO AUC0-last): 40900 ng·h/mL; half-life ([3]; mouse, PO, plasma, read-out: PO T1/2 (converted)): 20.4 min; solubility ([4]; aqueous acidic conditions, aqueous buffer): < 100 µg/mL; solubility in organic solvents ([4]; common organic solvents, greatest in methanol and tetrahydrofuran): soluble in common organic solvents; solubility ([4]; fasted-state simulated intestinal fluid, fassif): ~700 µg/mL; solubility ([4]; fed-state simulated intestinal fluid, fessif): ~700 µg/mL; solubility ([4]; simulated gastric fluid): < 100 µg/mL; antifibrotic efficacy [5]: demonstrated antifibrotic efficacy; antifibrotic efficacy, effect on acta2, colla1, and CTGF [7]: demonstrated antifibrotic efficacy; chemical and crystal form stability ([8]; 25° C./60% RH for 1 week): chemically stable without crystal form change; chemical and crystal form stability ([8]; 40° C./75% RH for 1 week): chemically stable without crystal form change; hygroscopicity, water uptake [10]: 0.5%"
,,,,"CC1CCC2C(C)C(OC(=O)N3CC(C)(O)C3)OC3OC4(C)CCC1C32OO4 (stereo not shown) [PT-14, DHA 3-hydroxy-3-methylazetidine-1-carboxylate]",active,570 nM,2200 ng·h/mL,75 mL/min/kg,10.8 min,1.1 L/kg,92%,20500 ng·h/mL,39.6 min,
,,,,"C[C@H]1[C@@H](OC(=O)C(C)(C)CO)O[C@@H]2O[C@@]3(C)CC[C@H]4[C@H](C)CC[C@@H]1[C@@]24OO3 [PT-2, DHA 3-hydroxy-2,2-dimethylpropanoate]",active,880 nM,1200 ng·h/mL,140 mL/min/kg,6 min,1.3 L/kg,27%,3200 ng·h/mL,,
98%,0.233,53.4%,0.278,C[C@H]1[C@H](OC(=O)CCC(=O)O)O[C@@H]2O[C@@]3(C)CC[C@H]4[C@H](C)CC[C@@H]1[C@@]24OO3 [artesunate],,,,,,,,,,IC50 ([2]; Cardiac fibroblast): 2800 nM; reduction in fluorescence (fibrotic marker ACTA2-GFP) [2]: dose-dependent reduction in fluorescence; antifibrotic activity [11]: active as an antifibrotic agent
102%,0.108,105%,0.1,"C[C@H]1[C@@H](O)OC2O[C@@]3(C)CC[C@H]4[C@H](C)CC[C@@H]1[C@@]24OO3 (stereo in doubt) [DHA, (3R,5aS,6R,8aS,9R,12S,12aR)-decahydro-3,6,9-trimethyl-3,12-epoxy-12H-pyrano[4,3-j]-1,2-benzodioxepin-10-ol]",,,,,,,,,,reduction in fluorescence (fibrotic marker ACTA2-GFP) [2]: dose-dependent reduction in fluorescence
,,,,"CC1CCC2C(C)C(OC(=O)CC(C)(C)O)OC3OC4(C)CCC1C32OO4 (stereo not shown) [PT-4, DHA 3-hydroxy-3-methylbutanoate]",,5600 nM,600 ng·h/mL,280 mL/min/kg,6.6 min,2.0 L/kg,11%,500 ng·h/mL,10.8 min,
,,,,"CNC(=O)C1(C)CN(C(=O)O[C@H]2O[C@@H]3O[C@@]4(C)CC[C@H]5[C@H](C)CC[C@@H]([C@H]2C)[C@@]35OO4)C1 [PT-28, DHA 3-methyl-3-(methylcarbamoyl)azetidine-1-carboxylate]",,,4200 ng·h/mL,38 mL/min/kg,14.4 min,0.8 L/kg,112%,48800 ng·h/mL,28.8 min,antifibrotic efficacy in this model [2]: demonstrated antifibrotic efficacy
,,,,"CC1CCC2C(C)C(OC(=O)N3CC(C)(C(=O)N(C)C)C3)OC3OC4(C)CCC1C32OO4 (stereo not shown) [PT-29, DHA 3-methyl-3-(dimethylcarbamoyl)azetidine-1-carboxylate]",,,2000 ng·h/mL,82 mL/min/kg,7.8 min,0.9 L/kg,34%,6800 ng·h/mL,64.8 min,
